Measurements published in patent publication US9216171B2, “Methods of preventing ischemic injury using peripheral nociceptive stimulation” (University of Cincinnati, priority 2009, dated 2015).

How the values were obtained:
Assay type in all cases: in vivo
[1] = system: murine ischemia/reperfusion model of myocardial infarction; experiment: Blockade of the cardioprotection by remote electrical stimulation in mouse ischemia/reperfusion model
Protocol: A previously described mouse model of ischemia and reperfusion (I/R) injury in vivo was used (Ren et al. (2004) J. Surg Res. 121(1):120-129; Fan et al (2005) Circulation 111(14):1792-1799; Zhou et al (2007) Cardiovascular Research 75(3) 487-497; and Diwan et al (2007) J. Clinical Investigation 117(10):2825-2833, herein incorporated by reference in their entirety). Mice were anesthetized with sodium pentobarbital (90 mg/kg ip), intubated with PE 90 tubing and ventilated using a mouse miniventilator (Harvard Apparatus, Holliston, Mass.). All mice were continuously monitored by electrocardiography (ECG) (DigiMed Sinus Rhythm Analyzer, Micro-Med Inc), and mice without evidence of ischemia and timely reperfusion were excluded from the studies.
A lateral thoracotomy (1.5 cm incision between the second and third ribs was performed to provide exposure of the left anterior descending coronary artery (LAD). Vascular bundles in the vicinity were coagulated using a microcoagulator (Medical Industries Inc, St. Petersburg Fla.). An 8-0 nylon suture was placed around the LAD 2-3 mm from the tip of the left auricle and a piece of soft silicon tubing (0.64 mm ID, 1.19 mm OD) was placed over the artery. Coronary occlusion was achieved by tightening and tying the suture. Coronary occlusion was for 45 minutes, unless indicated otherwise. At the end of the occlusion, the suture was untied and left in place. Ischemia was confirmed by visual observation of cyanosis and by continuous ECG monitoring (QRS complex widening, T wave inversion and ST segment changes); reperfusion was confirmed by reversal of these effects.
Mice were euthanized either 4 or 24 hours after reperfusion and infarct size determination and imaging were performed by previously described methods (Ren et al. (2004) J. Surg Res. 121(1):120-129 and Guo et al (1998) Am J. Physiology 275 (4 Pt 2):H1375-1387, herein incorporated by reference in their entirety). Mice were anesthetized with pentobarbital sodium (35 mg/kg iv) and euthanized with an intravenous bolus of KCl. The heart was excised and perfused with Krebs-Henseleit solution through an aortic cannula (22 or 23-gauge needle) using a Langerdorff apparatus. To delineate infarcted from viable myocardium, the heart was then perfused with a 1% solution of 2,3,5-triphenyltetrazolium chloride (TTC) in phosphate buffer (pH 7.4, 37° C.) at a pressure of […] (approx. 3 ml over 3 min). To delineate the occluded-reperfused coronary vascular bed, the coronary artery was then tied at the site of the previous occlusion and the aortic root was perfused with a 5% solution of phthalo blue dye in normal saline. […] Infarct size was determined by the method of Fishbein et al (1981) Am Heart J 101(5):593-600, herein incorporated by reference in its entirety. […]

[2] = system: murine ischemia/reperfusion model of myocardial infarction; experiment: Mouse ischemia/reperfusion model: infarct size after remote topical TRP agonist
Protocol: A previously described mouse model of ischemia and reperfusion (I/R) injury in vivo was used (Ren et al. (2004) J. Surg Res. 121(1):120-129; Fan et al (2005) Circulation 111(14):1792-1799; Zhou et al (2007) Cardiovascular Research 75(3) 487-497; and Diwan et al (2007) J. Clinical Investigation 117(10):2825-2833, herein incorporated by reference in their entirety). Mice were anesthetized with sodium pentobarbital (90 mg/kg ip), intubated with PE 90 tubing and ventilated using a mouse miniventilator (Harvard Apparatus, Holliston, Mass.). All mice were continuously monitored by electrocardiography ([…] Sinus Rhythm Analyzer, Micro-Med Inc), and mice without evidence of ischemia and timely reperfusion were excluded from the studies. A lateral thoracotomy (1.5 cm incision between the second and third ribs was performed to provide exposure of the left anterior descending coronary artery (LAD). Vascular bundles in the vicinity were coagulated using a microcoagulator (Medical Industries Inc, St. Petersburg Fla.). An 8-0 nylon suture was placed around the LAD 2-3 mm from the tip of the left auricle and a piece of soft silicon tubing (0.64 mm ID, 1.19 mm OD) was placed over the artery. Coronary occlusion was achieved by tightening and tying the suture. Coronary occlusion was for 45 minutes, unless indicated otherwise. At the end of the occlusion, the suture was untied and left in place. Ischemia was confirmed by visual observation of cyanosis and by continuous ECG monitoring (QRS complex widening, T wave inversion and ST segment changes); reperfusion was confirmed by reversal of these effects. Results of one such experiment are presented in FIG. 1, panel A. Mice were euthanized either 4 or 24 hours after reperfusion and infarct size determination and imaging were performed by previously described methods (Ren et al. (2004) J. Surg Res. 121(1):120-129 and Guo et al (1998) Am J. Physiology 275 (4 Pt 2):[…]-1387, herein incorporated by reference in their entirety). Mice were anesthetized with pentobarbital sodium (35 mg/kg iv) and euthanized with an intravenous bolus of KCl. The heart was excised and perfused with Krebs-Henseleit solution through an aortic cannula (22 or 23-gauge needle) using a Langerdorff apparatus. To delineate infarcted from viable myocardium, the heart was then perfused with a 1% solution of 2,3,5-triphenyltetrazolium chloride (TTC) in phosphate buffer (pH 7.4, 37° C.) at a pressure of […] (approx. 3 ml over 3 min). […] Infarct size was determined by the method of Fishbein et al (1981) Am Heart J 101(5):593-600, herein incorporated by reference in its entirety. […] Infarct size was determined as described elsewhere herein. […]

TRPV1 = target: T1, TRPV1 (Mus musculus, UniProt Q704Y3); experiment: Topical capsaicin before ischemia/reperfusion in wild-type vs TRPV1 knock-out mice; conditions: capsaicin topically administered to the abdomen prior to ischemia and reperfusion; FIG. 2E
T1 construct: data from wild-type mice topically treated with capsaicin administered to the abdomen prior to surgical induction of ischemia and reperfusion; from tissue; host or cells: Living wild-type mouse; abdominal skin nociceptors (C-fibers), in vivo
T1 sequence (Q704Y3 whole entry, the tested form may be a part): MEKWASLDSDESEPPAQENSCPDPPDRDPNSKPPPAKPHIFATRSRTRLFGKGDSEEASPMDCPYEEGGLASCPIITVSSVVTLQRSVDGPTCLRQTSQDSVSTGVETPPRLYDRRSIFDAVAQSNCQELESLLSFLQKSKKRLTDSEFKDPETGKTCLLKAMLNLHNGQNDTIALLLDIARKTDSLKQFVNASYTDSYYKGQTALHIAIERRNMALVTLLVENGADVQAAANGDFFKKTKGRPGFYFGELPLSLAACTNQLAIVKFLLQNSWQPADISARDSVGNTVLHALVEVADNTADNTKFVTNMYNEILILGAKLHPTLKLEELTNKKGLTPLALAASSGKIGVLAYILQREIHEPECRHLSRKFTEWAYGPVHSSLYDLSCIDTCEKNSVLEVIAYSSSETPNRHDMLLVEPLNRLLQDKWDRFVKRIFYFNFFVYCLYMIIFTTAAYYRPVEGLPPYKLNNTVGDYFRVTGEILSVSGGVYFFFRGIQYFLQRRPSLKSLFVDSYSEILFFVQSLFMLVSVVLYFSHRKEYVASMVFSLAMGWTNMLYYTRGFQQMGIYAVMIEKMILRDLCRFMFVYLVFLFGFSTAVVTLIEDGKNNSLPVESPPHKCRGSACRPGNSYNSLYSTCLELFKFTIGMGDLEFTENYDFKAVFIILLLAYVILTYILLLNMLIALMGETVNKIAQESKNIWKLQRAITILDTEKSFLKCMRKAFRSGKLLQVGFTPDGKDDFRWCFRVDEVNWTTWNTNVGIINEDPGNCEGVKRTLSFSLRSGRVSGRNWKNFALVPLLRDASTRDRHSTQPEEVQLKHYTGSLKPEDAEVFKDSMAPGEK
Description: FIG. 2, panel E presents a graph of results obtained from wild-type (WT) and TRPV1 knock-out (TRPVKO) mice using topical capsaicin as the cardioprotective stimulus. Infarct size as a percent of risk region is presented on the y-axis. The first bar presents data from wild-type mice topically treated with capsaicin administered to the abdomen prior to surgical induction of ischemia and reperfusion (WT, Capsaicin, hatched bar). The second bar presents data from TRPV1 knockout mice topically treated with capsaicin administered to the abdomen prior to surgical induction of ischemia and reperfusion (TRPVKO, Capsaicin, dotted bar). The third bar presents data from TRPV1 knockout mice subjected to sham treatment prior to surgical induction of ischemia and reperfusion (TRPVKO No capsaicin, empty bar).
Mice were anesthetized with sodium pentobarbital (90 mg/kg ip), intubated with PE 90 tubing and ventilated using a mouse miniventilator (Harvard Apparatus, Holliston, Mass.). All mice were continuously monitored by electrocardiography (ECG) (DigiMed Sinus Rhythm Analyzer, Micro-Med Inc), and mice without evidence of ischemia and timely reperfusion were excluded from the studies. […]

CC(C)NCC(O)COc1cccc2ccccc12 (stereo not drawn) [propanolol]
infarct size as a percentage of risk region ([1]; propanolol plus ES vs vehicle plus ES, FIG. 3B): significantly higher than infarct size in control mice treated only with the vehicle and electrically stimulated

CCN(CC)CC(=O)Nc1c(C)cccc1C [lidocaine]
infarct size as a percent of risk region ([1]; 2% lidocaine prior to electrical stimulation (ES) and ischemia, vs vehicle ES, FIG. 2A): significantly higher percentage of risk region than infarction size in vehicle and ES treated mice
cardioprotective effect of the remote electrical stimulation ([1]; 10 μl lidocaine (2%) s.c. pre-treatment, 45 min occlusion): no significant cardioprotection relative to controls

CCCN(CCC)S(=O)(=O)c1ccc(C(=O)O)cc1 [probenecid]
infarct size as a percent of risk region ([2]; topical probenecid application vs sham/control animals, p<0.07, FIG. 11): significantly reduced

COc1ccc2c(c[n+](C)c3c4cc5c(cc4ccc23)OCO5)c1OC [chelerythrine]
inhibition of ischemia-related tissue damage (infarct size as a percentage of risk region) ([1]; chelerythrine plus ES vs vehicle plus ES, FIG. 3C): reduced inhibition of ischemia-related tissue damage

COc1cc(CNC(=O)CCCC/C=C/C(C)C)ccc1O [capsaicin, (6E)-N-[(4-Hydroxy-3-methoxyphenyl)methyl]-8-methyl-6-nonenamide]
reduction of infarct size (infarct size as a percent of the risk region) ([2]; remote pre-conditioning, stimulus given 15 minutes prior to the ischemia, abdominal topical, vs sham, n=6, P<0.01): 85%
infarct size as a percent of the risk region ([2]; remote pre-treatment prior to ischemia/reperfusion, vs sham, FIG. 1C): substantial reduction in infarct size
infarct size as a percent of risk area ([2]; topical application during ischemia (conditioning) or after reperfusion (postCON), vs sham, p<0.01, FIG. 10): significantly reduces infarct size
infarct size as a percent of risk region, WT vs TRPVKO (TRPV1): reduced myocardial infarct size as compared to TRPVKO mice
